Measured values reported in US20180185370A1, “PYRAZINOQUINAZOLINONE DERIVATIVES WITH ANTIBACTERIAL ACTIVITY, METHODS AND USES THEREOF” (UNIVERSIDADE DO PORTO, priority 2015, published 2018).
Values after ≈ are worked out from the molar mass of the structure shown.

How the values were obtained:
S. aureus ATCC 25923 = assay: Antibacterial susceptibility testing, broth microdilution (MIC/MBC); assay type: cell-based, Staphylococcus aureus
Description: (§1) Bacterial strains and growth conditions. Five reference strains, Staphylococcus aureus ATCC 25923, Bacillus subtilis ATCC 6633, E. faecalis ATCC 29212, Escherichia coli ATCC 25922 and Pseudomonas aeruginosa ATCC 27853, and three multidrug-resistant isolates from environment, S. aureus B1 (a MRSA isolated from public buses), Enterococcus faecalis W1 (a VRE isolated from river water) and E. coli G1 (isolated from seagull feces) were used. Bacteria were grown overnight at 37° C. in Mueller-Hinton agar (MH—BioKar diagnostics, Allonne, France) prior to obtain be used in the subsequently described bioassays.
(§2) Antibacterial susceptibility testing. The minimum inhibitory concentration (MIC) values of the compounds of FIGS. 1D, 1E, 1G, 1H (equation i-iv) and 11 (equations v-x) were determined, in particular, by a broth microdilution technique, following the recommendations of the Clinical and Laboratory Standards Institute. Stock solutions of 10 mg/ml in DMSO were used to prepare in-test concentrations ranging from 2 to 256 μg/ml. Ciprofloxacin in the concentration range from 0.03125 to 16 μg/ml was used, in particular, as control drug in the experiment. The MIC was defined as the lowest concentration of compound that has inhibited the visible growth. The minimum bactericidal concentration (MBC) was determined by spreading on MH plates, 10 μL collected from the wells corresponding to the MIC and to higher concentrations, with further incubation for 24 h at 37° C.; the lowest concentration at which no growth occurred on MH was defined as the MBC.

S. aureus B1 (MRSA) = assay: as above; assay type: cell-based, Staphylococcus aureus; conditions: S. aureus B1 (MRSA)
Description: as §1, §2

B. subtilis ATCC 6633 = assay: as above; assay type: cell-based, Bacillus subtilis
Description: as §1, §2

P. aeruginosa ATCC 27853 = assay: Antibacterial susceptibility testing, broth microdilution (MIC); assay type: cell-based, Pseudomonas aeruginosa
Description: as §1, §2

E. coli ATCC 25922 = assay: as above; assay type: cell-based, Escherichia coli
Description: as §1, §2

E. faecalis ATCC 29212 = assay: Antibacterial susceptibility testing, broth microdilution (MIC/MBC); assay type: cell-based, Enterococcus faecalis
Description: as §1, §2

E. faecalis W1 (VRE) = assay: as above; assay type: cell-based, Enterococcus faecalis; conditions: E. faecalis W1 (VRE)
Description: as §1, §2

[1] = system: S. aureus and E. faecalis strains; assay: Antibacterial susceptibility testing; assay type: cell-based
Description: as §1, §2

[2] = system: S. aureus ATCC 25923, E. faecalis ATCC 29212, S. aureus B1 and E. faecalis W1; assay: Inhibition of biofilm formation, crystal violet assay; assay type: cell-based; conditions: for biofilm formation (biomass, crystal violet): 24 h
Description: The efficacy of neofiscalin A was also evaluated in hampering the biofilm formation. Neofiscalin A, in particular, at concentrations of 2×MIC, MIC, ½×MIC and ¼×MIC was added to bacterial suspensions of 1×10^6 CFU/ml in Tryptic Soy Broth (TSB—BioKar diagnostics, Allonne, France) of S. aureus ATCC 25923, E. faecalis ATCC 29212, S. aureus B1 and E. faecalis W1. Bacterial suspensions in absence of the compound were used as controls. Biofilm formation was induced, in particular, in 96-well flat-bottomed microtiter plates (200 μL/well) for 24 h at 37° C. After that time, biofilm biomass was quantified through the crystal violet assay as follows: the planktonic phase was discharged, then the biofilm was stained with 0.5% crystal violet for 5 min, rinsed with water, air dried and eluted with acetic acid 33% (v/v). The optical density was measured at 595 nm (0D595) using a microplate reader (iMark™ microplate absorbance reader, Bio-Rad Laboratories, Hercules, Calif., USA). Two independent experiments were performed in triplicate for each experimental condition. The statistical significance of the difference between biofilm controls and biofilms in the presence of different concentrations of compounds was evaluated using Student's t test. In both cases, probability levels <0.05 were considered statistically significant. Additionally, a microscopic visualization of the biofilms of S. aureus B1 and E. faecalis W1 was performed, in particular, using the Live/Dead BacLight viability kit (Life Technologies—Molecular Probes, Carlsbad, Calif., USA). Biofilms were formed, in particular, in 35-mm diameter polystyrene plates using TSB (control) and TSB supplemented with the MIC or ¼×MIC of neofiscalin A. After 24 h at 37° C., the planktonic phase was removed from each plate and the biofilms were washed with PBS, stained with the appropriate mixture of SYTO 9 and propidium iodide stains and incubated for 20 min at room temperature, in particular 20-25° C., in the dark; then, biofilms were rinsed and examined under a fluorescence microscope (BX41 Microscope, Olympus America Inc., Center Valley, Pa., USA). Images were recorded at an emission wavelength of 500 nm for SYTO 9 (green fluorescence) and of 635 nm for propidium iodide (red fluorescence).

[3] = system: S. aureus B1 and E. faecalis W1; assay: Microscopic visualization of biofilms, Live/Dead staining; assay type: cell-based; conditions: 24 h
Description: The efficacy of neofiscalin A was also evaluated in hampering the biofilm formation. Neofiscalin A, in particular, at concentrations of 2×MIC, MIC, ½×MIC and ¼×MIC was added to bacterial suspensions of 1×10^6 CFU/ml in Tryptic Soy Broth (TSB—BioKar diagnostics, Allonne, France) of S. aureus ATCC 25923, E. faecalis ATCC 29212, S. aureus B1 and E. faecalis W1. Bacterial suspensions in absence of the compound were used as controls. Biofilm formation was induced, in particular, in 96-well flat-bottomed microtiter plates (200 μL/well) for 24 h at 37° C. After that time, biofilm biomass was quantified through the crystal violet assay as follows: the planktonic phase was discharged, then the biofilm was stained with 0.5% crystal violet for 5 min, rinsed with water, air dried and eluted with acetic acid 33% (v/v). The optical density was measured at 595 nm (0D595) using a microplate reader (iMark™ microplate absorbance reader, Bio-Rad Laboratories, Hercules, Calif., USA). Two independent experiments were performed in triplicate for each experimental condition. The statistical significance of the difference between biofilm controls and biofilms in the presence of different concentrations of compounds was evaluated using Student's t test. […] Images were recorded at an emission wavelength of 500 nm for SYTO 9 (green fluorescence) and of 635 nm for propidium iodide (red fluorescence).

S. aureus B1 [4] = assay: Biofilm inhibitory and biofilm eradication concentrations on 24-h mature biofilms; assay type: cell-based, Staphylococcus aureus
Description: (§3) Determination of neofiscalin A biofilm inhibitory and biofilm eradication concentrations. The efficacy of neofiscalin A on 24-h mature biofilms of S. aureus B1 and E. faecalis W1 was also evaluated, in particular, by determining the BIC and the BEC. […] The optical density at 595 nm was measured at time 0 and after incubation for 24 h at 37° C. The BIC was determined as the lowest concentration of the compound inhibiting growth in the supernatant fluid, confirmed by no increase in the optical density compared with the initial reading. The BEC was determined as the lowest concentration that prevented regrowth of biofilm cells on tryptic soy agar plates.

E. faecalis W1 [5] = assay: as above; assay type: cell-based, Enterococcus faecalis
Description: as §3

S. aureus B1 [6] = assay: Biofilm metabolic activity after treatment, MTT; assay type: cell-based, Staphylococcus aureus; conditions: 24-h biofilms of S. aureus B1 treated for 24 h with 200 μg/ml
Description: (§4) Evaluation of the biofilm metabolic activity after treatment with different concentrations of neofiscalin A. Twenty four-hours biofilms of S. aureus B1 and E. faecalis W1 formed as above described were subsequently treated with high concentrations of neofiscalin A, in particular up to 25×MIC. After 24 h of incubation at 37° C., the bacterial metabolic activity of biofilms was quantified using the 3-(4,5-dimethylthiazole-2-yl)-2,5-diphenyl tetrazolium bromide (MTT, Sigma-Aldrich, St Louis, USA). MTT is used to assess cell viability as a function of redox potential. Actively respiring cells convert the water-soluble MU to an insoluble purple formazan. The formazan is then solubilized and its concentration determined by optical density. In this assay, biofilms were treated with MU (0.5 mg/ml) for 2 h at 37° C. in the dark. DMSO was used to extract the formazan dye product and then the absorbance at 550 nm was measured.

E. faecalis W1 [7] = assay: Biofilm metabolic activity after treatment, MTT; assay type: cell-based, Enterococcus faecalis; conditions: 24-h biofilms of E. faecalis W1 treated for 24 h with 200 μg/ml
Description: as §4

S. aureus B1 [8] = assay: Synergy screening with antibiotic discs, disc diffusion method; assay type: cell-based, Staphylococcus aureus; conditions: for inhibition zone: S. aureus B1
Description: (§5) Synergistic studies between compounds and antibiotics. A screening susceptibility test to assess the combined effect between the compounds and antibiotics was conducted using the disc diffusion method on MH, against three multidrug-resistant isolates, E. coli G1, S. aureus B1 and E. faecalis W1. A set of antibiotic discs (Oxoid, Basingstoke, England) was selected based on the resistance of the isolates towards those antibiotics. Based on the results of the previous assay, an unexpected synergetic effect between fiscalin C (see FIG. 1I, equation v) and oxacillin (Sigma-Aldrich, St. Louis, Mo., USA) was determined using, in particular, a broth microdilution Checkerboard method against the MRSA isolate (S. aureus B1). The fractional inhibitory concentration (FIC) was calculated as follows: FIC of drug A (FIC A)=MIC of drug A in combination/MIC of drug A alone, and FIC of drug B (FIC B)=MIC of drug B in combination/MIC of drug B alone. The FIC index (ΣFIC), calculated as the sum of each FIC, was interpreted as follows: ΣFIC 0.5, synergy; 0.5<ΣFIC 4, no interaction; 4<ΣFIC, antagonism.

S. aureus B1 [9] = assay: Broth microdilution Checkerboard method; assay type: cell-based, Staphylococcus aureus; conditions: for combined effect with oxacillin: fiscalin C with oxacillin, MRSA (S. aureus B1)
Description: as §5, with “Based on the results of the previous assay, an unexpected synergetic effect between fiscalin C (see FIG. 1I, equation v) and oxacillin (Sigma-Aldrich, St. Louis, Mo., USA) was determined using, in particular, a broth microdilution Checkerboard method against the MRSA isolate (S. aureus B1).” left out

## CC(C)[C@@H]1NC(=O)[C@@H](C[C@]2(O)c3ccccc3N3C(=O)[C@@H](C)N[C@H]32)n2c1nc1ccccc1c2=O [FIG. 1I (eq. ix), neofiscalin A]
S. aureus ATCC 25923
  Minimum bactericidal concentration-MBC: 16 µg/mL (≈ 33.8 µM)
  Minimum inhibitory concentration-MIC: 8 µg/mL (≈ 16.9 µM)
S. aureus B1 (MRSA)
  Minimum bactericidal concentration-MBC: 32 µg/mL (≈ 67.6 µM)
  Minimum inhibitory concentration-MIC: 8 µg/mL (≈ 16.9 µM)
B. subtilis ATCC 6633
  Minimum bactericidal concentration-MBC: >256 µg/mL
  Minimum inhibitory concentration-MIC: 128 µg/mL (≈ 270 µM)
P. aeruginosa ATCC 27853
  Minimum inhibitory concentration-MIC: >256 µg/mL
E. coli ATCC 25922
  Minimum inhibitory concentration-MIC: >256 µg/mL
E. faecalis ATCC 29212
  Minimum bactericidal concentration-MBC: 32 µg/mL (≈ 67.6 µM)
  Minimum inhibitory concentration-MIC: 8 µg/mL (≈ 16.9 µM)
E. faecalis W1 (VRE)
  Minimum bactericidal concentration-MBC: 32 µg/mL (≈ 67.6 µM)
  Minimum inhibitory concentration-MIC: 8 µg/mL (≈ 16.9 µM)
[1]; S. aureus and E. faecalis strains, including multidrug-resistant isolates (MRSA, VRE)
  MIC value: 8 µg/mL (≈ 16.9 µM)
[1]; Table 3 versus Table 2
  MBC relative to the MIC: usually four times higher than the MIC
[1]; reference strains and multidrug-resistant isolates, highest concentration tested 256 μg/ml
  antibacterial activity: presented antibacterial activity against Gram-positive bacteria
[2]; 2×MIC and MIC
  biofilm formation (biomass, crystal violet): none of the strains was able to form a biofilm
[2]; MRSA and VRE strains
  biofilm formation: inhibit the biofilm formation
[2]; ¼×MIC
  biofilm formation (biomass, crystal violet): allowed the formation of a larger biofilm, but smaller than that observed in the control group
[2]; ½×MIC
  biofilm formation (biomass, crystal violet): the strains did not succeed in forming much biofilm
[3]; at the MIC
  biofilm formation (Live/Dead microscopy): no biofilm was produced
[3]; ¼×MIC
  biofilm formation (Live/Dead microscopy): a biofilm was formed (FIG. 4C), though it was not as large as in the control
S. aureus B1 [4]; 24-h biofilms of S. aureus B1 (MRSA)
  biofilm inhibitory concentration (BIC): 96 µg/mL
S. aureus B1 [4]; 24-h biofilms of S. aureus B1, higher than 25×MIC
  biofilm eradication concentration (BEC): > 200 µg/mL
E. faecalis W1 [5]; 24-h biofilms of E. faecalis W1 (VRE)
  biofilm inhibitory concentration (BIC): 80 µg/mL
E. faecalis W1 [5]; 24-h biofilms of E. faecalis W1, higher than 25×MIC
  biofilm eradication concentration (BEC): > 200 µg/mL
S. aureus B1 [6]
  reduction of metabolic activity of biofilm (MTT): ~50%
E. faecalis W1 [7]
  reduction of metabolic activity of biofilm (MTT): ~50%

## CC(C)[C@@H]1NC(=O)[C@@H](C[C@]2(O)c3ccccc3N3C(=O)C(C)(C)N[C@H]32)n2c1nc1ccccc1c2=O [FIG. 1I (eq. v), fiscalin C]
S. aureus ATCC 25923
  Minimum inhibitory concentration-MIC: >256 µg/mL
S. aureus B1 (MRSA)
  Minimum inhibitory concentration-MIC: >256 µg/mL
B. subtilis ATCC 6633
  Minimum inhibitory concentration-MIC: >256 µg/mL
P. aeruginosa ATCC 27853
  Minimum inhibitory concentration-MIC: >256 µg/mL
E. coli ATCC 25922
  Minimum inhibitory concentration-MIC: >256 µg/mL
E. faecalis ATCC 29212
  Minimum inhibitory concentration-MIC: >256 µg/mL
E. faecalis W1 (VRE)
  Minimum inhibitory concentration-MIC: >256 µg/mL
S. aureus B1 [8]; fiscalin C in combination with ampicillin
  inhibition zone: 8 mm
S. aureus B1 [8]; fiscalin C in combination with oxacillin
  inhibition zone: 10 mm
S. aureus B1 [8]; not in combination, MRSA isolate S. aureus B1
  zone of inhibition on agar plates: neither fiscalin C, ampicillin or oxacillin produced any zone of inhibition
S. aureus B1 [9]; drug alone, S. aureus B1
  MIC: >512 µg/mL
S. aureus B1 [9]; fiscalin C with ampicillin, S. aureus B1
  combined effect with ampicillin: indifferent
S. aureus B1 [9]; listed as Fiscalin C
  combined effect with oxacillin: synergistic effect
S. aureus B1 [9]; listed as fiscalin C
  combined effect with oxacillin: clear synergistic effect
